# Reference: patent US10172905B1, “Treatment of protein degradation disorders” (President and Fellows of Harvard College, priority 2005, dated 2019)
# Entries after “also recorded” stand apart in the source; their conditions may differ.
# Key:
# [1] = tested on: MM.1S cells; experiment: Cell cycle profile by flow cytometry (PI staining); assay type: cell-based, human; settings: 24 h
# Experimental: […] Cells were then stained with propidium iodine (PI, Sigma) (5 μg/ml) and cell cycle profile was determined using program M software on an Epics flow cytometer (Coulter Immunology, Hialeah, Fla.) (44).
# [2] = tested on: polyubiquitinated proteins; experiment: Western blotting with anti-Ub Ab; assay type: cell-based, human; settings: tubacin alone
# Experimental: (§1) Cells cultured with tubacin and/or bortezomib were harvested; washed, and lysed using lysis buffer: 50 mM Tris-HCl (pH 7.4), 150 mM NaCl, 1% NP-40, 5 mM EDTA, 5 mM NaF, 1 mM Na3VO4, 1 mM PMSF, 5 μg/ml leupeptine, and 5 μg/ml aprotinin. Whole cell lysates were subjected to SDS-PAGE, transferred to nitrocellulose membrane (Bio-Rad Laboratories, Hercules, Calif.), and immunoblotted with specific Abs (31). Western blotting was done using anti-HDAC6, acetylated lysine, acetylated histone H3, acetylated histone H4, ubiquitin (Ub), phospho-SAPK (JNK), caspase-8 caspase-9, caspase-3, and PARP Abs (Cell Signaling, Beverly, Mass.); with anti-α-tubulin Ab (Santa Cruz Biotechnology, Santa Cruz, Calif.); as well as with anti-dynein Ab (Sigma, Saint Louis, Mo.). For immunoprecipitation, whole cell lysates were incubated with anti-Ub or dynein Abs overnight at 4° C., and then incubated with protein A/G PLUS-Agarose (Santa Cruz Biotechnology) for 2 h at 4° C., as in our prior study (31). Immunoprecipitates were then subjected to Western blotting for detection of HDAC6 and dynein.
# [3] = tested on: MM.1S and RPMI8226 cells; experiment: [3H]-thymidine uptake of MM cells adherent to BMSCs; assay type: cell-based, human
# Experimental: […] DNA synthesis was measured as described above.
# After treatment, DNA synthesis was measured by [^3H]-thymidine (Perkin Elmer, Boston Mass.) uptake, as previously described (44). All experiments were performed in quadruplicate.
# [4] = tested on: MM.1S cells; experiment: [3H]-thymidine uptake with or without IL-6; assay type: cell-based, human; settings: tubacin 1.25-5 μM, IL-6 5-20 ng/ml, 48 h
# Experimental: Proliferation was measured by ^3H-thymidine uptake. Briefly, MM cells (3×10^4 cells/well) were incubated in 96-well culture plates in the presence of media, Velcade and/or Tubacin for 48 h at 37° C. DNA synthesis was measured by [^3H]-thymidine ([^3H]-TdR, Perkin Elmer, Boston, Mass.) uptake. Cells were pulsed with [^3H]TdR (0.5 μCi/well) during the last 8 h of 48 h cultures. All experiments were performed in triplicate.
# [5] = tested on: MM.1S cells and RPMI cells; experiment: Inhibition of protein catabolism in myeloma cells; assay type: cell-based; settings: FIG. 18
# [6] = tested on: A549 lung cancer cells; settings: previously reported; cited from earlier work
# [7] = target: T1, HDAC6 (Homo sapiens, UniProt Q9UBN7); experiment: Western blotting with anti-acetylated lysine / HDAC6 Abs; assay type: cell-based; set-up: MM.1S, U266, INA-6, RPMI8226, and RPMI-LR5 MM cell lines constitutively express HDAC6; endogenous in cells; host or cells: MM.1S, RPMI8226 and other MM cell lines; MM patient BMPCs/PBMCs
# T1 sequence (Q9UBN7 1-1215): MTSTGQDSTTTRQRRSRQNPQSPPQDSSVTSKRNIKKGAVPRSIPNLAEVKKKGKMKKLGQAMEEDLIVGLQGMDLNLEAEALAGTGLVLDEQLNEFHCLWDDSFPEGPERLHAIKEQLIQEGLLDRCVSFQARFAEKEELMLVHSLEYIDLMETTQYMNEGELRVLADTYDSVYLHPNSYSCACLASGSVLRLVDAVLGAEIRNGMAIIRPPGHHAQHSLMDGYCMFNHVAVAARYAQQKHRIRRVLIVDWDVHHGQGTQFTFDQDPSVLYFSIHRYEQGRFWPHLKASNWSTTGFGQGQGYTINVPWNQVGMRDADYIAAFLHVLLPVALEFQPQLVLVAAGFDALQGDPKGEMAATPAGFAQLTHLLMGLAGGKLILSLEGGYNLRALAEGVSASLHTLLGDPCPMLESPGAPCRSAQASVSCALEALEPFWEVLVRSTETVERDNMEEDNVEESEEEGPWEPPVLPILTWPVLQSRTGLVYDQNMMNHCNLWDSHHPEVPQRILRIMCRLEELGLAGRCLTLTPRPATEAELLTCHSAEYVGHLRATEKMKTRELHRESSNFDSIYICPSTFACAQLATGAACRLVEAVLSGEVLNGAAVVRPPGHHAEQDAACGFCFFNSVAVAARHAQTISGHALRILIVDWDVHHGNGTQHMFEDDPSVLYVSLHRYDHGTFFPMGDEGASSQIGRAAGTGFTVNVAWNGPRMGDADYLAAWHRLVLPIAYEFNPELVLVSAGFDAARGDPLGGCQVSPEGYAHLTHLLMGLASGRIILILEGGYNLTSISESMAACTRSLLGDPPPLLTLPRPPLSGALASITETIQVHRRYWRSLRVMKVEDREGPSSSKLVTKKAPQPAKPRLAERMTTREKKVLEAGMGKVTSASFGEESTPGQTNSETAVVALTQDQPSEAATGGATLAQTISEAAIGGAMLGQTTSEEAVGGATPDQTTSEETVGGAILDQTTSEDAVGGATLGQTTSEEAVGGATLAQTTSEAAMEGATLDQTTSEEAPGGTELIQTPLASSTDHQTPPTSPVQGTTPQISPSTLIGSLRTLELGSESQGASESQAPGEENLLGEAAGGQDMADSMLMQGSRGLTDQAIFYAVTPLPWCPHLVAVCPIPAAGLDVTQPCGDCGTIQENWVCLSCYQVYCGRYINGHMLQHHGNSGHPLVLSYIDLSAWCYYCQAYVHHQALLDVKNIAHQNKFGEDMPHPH
# Experimental: MM cells were cultured with Velcade and/or Tubacin; harvested; washed; and lysed using lysis buffer: 50 mM Tris-HCl (pH 7.4), 150 mM NaCl, 1% NP-40, 5 mM EDTA, 5 mM NaF, 2 mM Na3VO4, 1 mM PMSF, 5 μg/ml leupeptine, and 5 μg/ml aprotinin. Cell lysates were subjected to SDS-PAGE, transferred to PVDF membrane (Bio-Rad Laboratories, Hercules, Calif.), and immunoblotted with Abs against specific proteins.
# as §1
smiles,measurement,setting,value
O=C(CCCCCCC(=O)Nc1ccc([C@H]2O[C@@H](CSc3nc(-c4ccccc4)c(-c4ccccc4)o3)C[C@@H](c3ccc(CO)cc3)O2)cc1)NO [tubacin],G2/M arrest triggered by Velcade,[1]; Velcade 5 nM with tubacin 5 μM,significantly inhibits G2/M arrest
same,cell cycle profile,[1]; tubacin 5 μM alone,does not alter cell cycle profile
same,polyubiquitinated proteins,[2]; MM.1S cells,no significant change
same,polyubiquitinated proteins,[2]; RPMI8226 cells,significantly accumulate; also recorded: increase in cellular ubiquitinated proteins
same,"BMSC-induced [3H]-thymidine uptake / MM cell growth with BMSCs, single agent","[3]; MM cells adherent to BMSCs, 24 h",inhibits BMSC-induced [^3H]-thymidine uptake in a dose-dependent fashion; also recorded: significantly inhibits MM.1S cell growth even in the presence of BMSCs; also recorded: inhibits paracrine MM cell growth
same,effect of tubacin on bortezomib-induced inhibition of [3H]-thymidine uptake,"[3]; adherent MM.1S and RPMI8226 cells, tubacin with bortezomib",significantly enhances bortezomib-induced inhibition of [^3H]-thymidine uptake; also recorded: further augmented cytotoxicity of Velcade
same,growth inhibitory / cytotoxic effect of tubacin in the presence of IL-6,[4],maintained; also recorded: did not overcome
same,inhibition of protein catabolism,[5],potent inhibitors of protein catabolism
same,"histone acetylation, transcriptional profile, cell cycle, viability",[6],"no effect on histone acetylation, the transcriptional profile, cell cycle, or viability of A549 lung cancer cells"
same,acetylation of α-tubulin,"[7]; MM cell lines (MM.1S, RPMI8226), tubacin up to 5 μM, 24 h",significantly induces aceylation of α-tubulin in a dose-dependent fashion; also recorded: causes tubulin hyperacetylation; also recorded: specifically induces acetylation of t-tubulin in a dose-dependent fashion; also recorded: specifically induces acetylation of α-tubulin
same,acetylation of tubulin in BMPCs,"[7]; tubacin 5 μM, 12 h, BMPCs of an MM patient",markedly enhanced
same,acetylation of tubulin in PBMCs,"[7]; tubacin 5 μM, 12 h, PBMCs of the same MM patient",but not in PBMCs
same,time of peak acetylation of α-tubulin,"[7]; tubacin 5 μM, RPMI8226 cells",12 h
same,expression of HDAC6,[7]; tubacin treatment (data not shown),not altered
